SMILES strings stand for the structures.

Chain of DNA repair nuclease/redox regulator APEX1 (P27695 whole entry): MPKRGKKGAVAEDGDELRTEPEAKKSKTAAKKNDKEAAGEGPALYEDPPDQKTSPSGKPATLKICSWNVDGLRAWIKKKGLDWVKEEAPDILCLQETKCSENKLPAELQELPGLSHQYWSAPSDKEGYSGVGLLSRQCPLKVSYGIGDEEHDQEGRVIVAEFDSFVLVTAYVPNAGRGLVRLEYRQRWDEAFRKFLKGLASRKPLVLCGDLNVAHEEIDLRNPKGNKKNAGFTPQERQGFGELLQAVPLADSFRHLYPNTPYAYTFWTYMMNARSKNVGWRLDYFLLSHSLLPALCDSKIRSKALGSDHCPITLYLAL

One experiment concerns the target DNA repair nuclease/redox regulator APEX1 (Homo sapiens, UniProt P27695). The experiment is described as follows: Inhibition of purified human recombinant APE1 expressed in Escherichia coli M15 cells.
On to `O=C(O)CN1C(=O)/C(=C\c2ccc(-c3cccc(C(=O)O)c3)o2)SC1=S`, for which the IC50 came out at 6 µM. On the same count and under the same terms, the figure for `CCCNS(=O)(=O)c1ccc(OCC(=O)NCC2CCCO2)c(C)c1` (configuration not stated) is > 100 µM.

As to `CCCS(=O)(=O)N1CCCC(c2nc(-c3ccc(C(C)C)cc3)no2)C1` (configuration not stated), the IC50 is > 100 µM. As to `Cc1ccc(S(=O)(=O)Nc2ccc(NC(=O)CN3CCCCC3)c(Cl)c2)cc1`, the IC50 is > 100 µM. Consider `O=C(O)c1ccc(S(=O)(=O)c2ccc(Sc3ccc(C(=O)O)c(C(=O)O)c3)cc2)cc1`, for which the IC50 is 6 µM. Same read-out and setting: the figure for `COc1ccc(/C=C/C(=O)O)cc1S(=O)(=O)NCc1cccnc1` is > 100 µM; for `O=C(O)CCS(=O)(=O)c1cccc2c(S(=O)(=O)CCC(=O)O)cccc12` it is 35 µM; for `Cc1ccc(OCc2ccoc2C(=O)O)cc1C` it is 11 µM. Still for that read-out and setting: the figure for `Cc1c(OS(=O)(=O)c2ccccc2)cccc1OS(=O)(=O)c1ccccc1` is > 100 µM. Same read-out and setting: the figure for `O=C(CN(Cc1cccs1)S(=O)(=O)c1ccc(S(=O)(=O)NC2CC2)cc1)Nc1ccccc1` is > 100 µM; for `O=C(O)CNC(=O)c1cc(=O)[nH]c(=O)[nH]1` it is > 100 µM. Regarding `O=S(=O)(Nc1ccc(NS(=O)(=O)c2cccs2)cc1)c1cccs1`, the IC50 is > 100 µM. Same read-out and setting: as for `O=C(O)CCNc1ccc(Br)cc1C(=O)O`, the figure is 32 µM.

For `CCc1nnc(NC(=O)c2cc(S(=O)(=O)N(CC)CC)ccc2Cl)s1`, the IC50 was > 100 µM. With `O=C(Nc1cc(S(=O)(=O)O)cc2cc(S(=O)(=O)O)cc(O)c12)c1ccccc1`, the IC50 is 27 µM. For the compound `COc1cc(S(=O)(=O)NC2CCCCC2C)ccc1-n1cnnn1` (configuration not stated), the IC50 was > 100 µM. For the compound `O=C(O)CCSc1nnc(SCCC(=O)O)s1`, the 50% inhibitory concentration (IC50) came to 17 µM.

For the compound `O=S(=O)(c1ccc(OC(F)(F)F)cc1)N1CCCC(c2nc(O)c3nnn(Cc4ccccc4Cl)c3n2)C1` (configuration not stated), the IC50 was > 100 µM. Still for that read-out and setting: the figure for `O=C(CN1C(=O)c2ccccc2S1(=O)=O)Nc1ccc(Cl)c(C(=O)O)c1` is > 100 µM; for `O=C(O)c1cccc(S(=O)(=O)N2CCS(=O)(=O)CC2)c1` it is 80 µM. Turning to `NC(=O)CSc1nnc(-c2ccc(S(=O)(=O)N3CCCCC3)cc2)n1Cc1ccccc1`, the IC50 is > 100 µM. As for `Cc1cc(S(=O)(=O)N2CCOCC2)ccc1OCC(=O)N1CCCC1`, the IC50 was > 100 µM. On to `CCCCOC(=O)c1ccc(NC(=O)CSc2nnnn2CC)cc1`, for which the IC50 was > 100 µM. For the compound `O=C(O)CSc1cccc(C(=O)O)c1`, the IC50 was 33 µM. On to `Cc1nc2ccc(C(=O)O)cc2c(O)c1CCC(=O)O`, for which the IC50 is 20 µM. On to `CCOC(=O)C(CCc1nn[nH]n1)(CCc1nn[nH]n1)C(=O)OCC`, for which the IC50 is > 100 µM.

Take `CN(C)c1ccc(-c2noc(C3CCN(S(=O)(=O)c4cccc(C(=O)O)c4)CC3)n2)cc1`: the IC50 is 40 µM. For the compound `O=C(O)CN1C(=O)/C(=C2\SC(=S)N(C(Cc3ccccc3)C(=O)O)C2=O)c2ccccc21` (configuration not stated), the IC50 was 3 µM. The same measure, in the same setting: as for `O=C(O)CCc1ccc(-c2ccc(F)cc2)n1CC(=O)O`, the figure is 9 µM; as for `Cn1c(SCC(N)=O)nnc1-c1ccc(NS(C)(=O)=O)cc1`, > 100 µM; as for `O=C(O)c1cccc(S(=O)(=O)N2CCCC(c3nc(O)c4nnn(Cc5ccc(F)cc5)c4n3)C2)c1` (configuration not stated), 33 µM. For the compound `C/C(CCc1ccc2c(c1)OCO2)=N\N=C1/NC(=O)CC(C(=O)O)S1` (configuration not stated), the IC50 was found to be 50 µM.

As to `O=C(Nc1nnc(CCS(=O)(=O)c2ccc3ccccc3c2)s1)c1ccccc1`, the IC50 is > 100 µM. As for `O=C(O)c1cccc(S(=O)(=O)N2CCCC(c3nc(O)c4nnn(Cc5ccccc5Cl)c4n3)C2)c1` (configuration not stated), the IC50 was determined as 87 µM. Same read-out and setting: the figure for `O=C(Cn1cc(C(=O)c2ccco2)c2ccccc21)NCc1cccnc1` is > 100 µM. The same measure, in the same setting: as for `O=C(O)CN1C(=O)/C(=C2\SC(=S)N(c3ccc(Br)cc3)C2=O)c2ccccc21`, the figure is 6 µM; as for `Cc1cc(C)nc(SCc2nnc(SCC(=O)N3CCCCC3)n2-c2ccccc2)n1`, > 100 µM. Same read-out and setting: the figure for `O=C(O)c1ccc(Oc2ccc(S(=O)(=O)c3ccc(C(=O)O)c(C(=O)O)c3)cc2)cc1` is 10 µM; for `CC1CCc2c(sc3nc(C4CC4)n4c(SCC(=O)Nc5nccs5)nnc4c23)C1` (configuration not stated) it is > 100 µM; for `Cc1cc(S(=O)(=O)NC2CCCC2)ccc1-n1cnnn1` it is > 100 µM.

With `COc1cc(S(=O)(=O)N(Cc2ccc(Br)cc2)Cc2ccco2)ccc1-n1cnnn1`, the IC50 is > 100 µM. For `N#C/C(=C\c1ccc(-c2ccccc2[N+](=O)[O-])o1)S(=O)(=O)c1ccccc1`, the IC50 was > 100 µM. `C=CCN1C(=S)S/C(=C/C=C2\Sc3ccccc3N2CCCS(=O)(=O)O)C1=S`: the IC50 is > 100 µM. Turning to `Cc1ccccc1NC(=O)c1cccc(NC(=O)CCC(=O)O)c1`, the IC50 came to 35 µM.

As for `O=C(O)CCc1ccc(-c2cccs2)n1CC(=O)O`, the IC50 came to 9 µM. As for `O=C(O)CCn1c(=O)oc2cc(S(=O)(=O)O)ccc21`, the IC50 came to 80 µM. As for `O=C(Nc1nnc(CCS(=O)(=O)c2ccc3ccccc3c2)s1)c1ccccc1Cl`, the IC50 was > 100 µM. For the compound `O=C(O)c1cccc(NS(=O)(=O)c2cccc3nsnc23)c1`, the IC50 is > 100 µM. The same measure, in the same setting: the figure for `Cc1ccc(S(=O)(=O)CCc2nnc(NC(=O)CC3CC4CCC3C4)s2)cc1` (configuration not stated) is > 100 µM; for `Cc1cc(S(=O)(=O)N2CCOCC2)ccc1OCC(=O)NCc1ccncc1` it is > 100 µM. The same measure, in the same setting: as for `Cc1cc(C(=O)O)c(CSCc2cc(C(=O)O)oc2C)o1`, the figure is 20 µM. On to `CN(NC(=O)COc1ccccc1)C1=NS(=O)(=O)c2ccccc21`, for which the IC50 is > 100 µM. With `O=S(=O)(c1ccccc1)N1CCCC(c2nc(-c3ccc(F)cc3)no2)C1` (configuration not stated), the IC50 was > 100 µM.

As for `O=C(O)CN1C(=O)/C(=C2\SC(=S)NC2=O)c2ccccc21`, the IC50 was 9 µM. Turning to `COC(=O)C1C(=O)c2c([nH]c(C(=O)OCC3CCCO3)c2C)CC1C` (configuration not stated), the IC50 is > 100 µM. Consider `COc1cc(C=C2C(=O)OC3(CCCC3)OC2=O)cc(I)c1OCc1ccccc1C#N`, for which the IC50 was > 100 µM. The same measure, in the same setting: the figure for `Cc1ccc(-c2ccc(CCC(=O)O)n2CC(=O)O)cc1` is 12 µM. On to `CC1CCCCC1N(Cc1ccccc1F)S(=O)(=O)c1ccc(S(=O)(=O)N(C)C)cc1` (configuration not stated), for which the IC50 is > 100 µM. For `O=C(O)CSc1ccc(C(=O)O)cc1[N+](=O)[O-]`, the IC50 turned out to be 100 µM. For `O=C(O)CC[S+]([O-])CCC(=O)O`, the IC50 is 40 µM. For `CCC(=O)N(Cc1ccc(S(N)(=O)=O)cc1)C1CC(=O)N(c2ccccc2)C1=O` (configuration not stated), the IC50 is > 100 µM. Regarding `Cc1oc(C(=O)O)cc1CSCc1cc(C(=O)O)oc1C`, the IC50 came to 40 µM.

In the case of `O=S(=O)(O)CCSc1nnc(SCCS(=O)(=O)O)s1`, the IC50 was > 100 µM.

With `O=[N+]([O-])c1ccccc1-c1nnc(CSc2nc(-c3ccccc3O)n[nH]2)o1`, the IC50 was > 100 µM. Regarding `Cc1cc(NC(=O)CCC(=O)O)ccc1NC(=O)c1cccs1`, the IC50 worked out at 100 µM.

On to `COc1ccc(N(CC(=O)NC2CCCC2)C(=O)C2CSC(=O)C2)cc1` (configuration not stated), for which the IC50 is > 100 µM. `CC(Oc1cc(OC(C)C(=O)O)c2c(c1)oc(=O)c1ccccc12)C(=O)O` (configuration not stated): the IC50 was found to be 8 µM.

As for `CC1([N+](=O)[O-])CN(CCC(=O)O)CN(CCC(=O)O)C1`, the IC50 worked out at 50 µM. Turning to `O=C(O)CCCN1C(=O)/C(=C2/C(=O)N(CC(=O)O)c3ccccc32)SC1=S`, the IC50 worked out at 12 µM.

For the compound `O=C(O)CC1OC(=O)c2cc3c(cc21)C(=O)OC3CC(=O)O` (configuration not stated), the concentration for half-maximal inhibition (IC50) turned out to be 11 µM.

As to `O=S(=O)(c1cc(S(=O)(=O)N2CCOCC2)c2n[n+]3c4cc(S(=O)(=O)N5CCOCC5)cc(S(=O)(=O)N5CCOCC5)c4[n-]n3c2c1)N1CCOCC1`, the IC50 is > 100 µM. Consider `O=C(Nc1ccccc1O)c1cc(S(=O)(=O)N2CCCCC2)ccc1Cl`, for which the IC50 was > 100 µM.

For the compound `CN(c1ccc(C(=O)Nc2ccc(F)cc2)cc1)S(=O)(=O)c1ccccc1`, the IC50 is > 100 µM.

Regarding `CCN1/C(=C2/SC(=S)N(NC(C)=O)C2=O)Sc2ccc(S(=O)(=O)C(F)(F)F)cc21`, the IC50 is > 100 µM.

With `COc1cc(S(=O)(=O)N(Cc2cccnc2)Cc2ccccc2Cl)ccc1-n1cnnn1`, the IC50 is > 100 µM.

`O=S(=O)(O)c1ccccc1Nc1ccnc(Nc2ccccc2S(=O)(=O)O)n1`: the IC50 was > 100 µM. For the compound `O=S(=O)(O)CC(O)CSc1nc2ccccc2s1` (configuration not stated), the IC50 came out at 100 µM. On to `CCOC(=O)C(=Cc1c[nH]c2ccc(S(=O)(=O)N(C)C)cc12)C(=O)OCC`, for which the IC50 is > 100 µM. For the compound `CCn1c(SCC(=O)c2cccs2)nnc1-c1ccc(NS(C)(=O)=O)cc1`, the IC50 is > 100 µM. With `Cc1ccc2c(c1)c1nnc(SCc3ccc(CC(=O)O)cc3)nc1n2C(=O)O`, the IC50 stood at 15 µM. Turning to `Cc1cc(CSCc2cc(C(=O)O)c(C)o2)oc1C(=O)O`, the IC50 was 6 µM. For `Cc1oc(CSCC2CCCO2)cc1C(=O)O` (configuration not stated), the IC50 came out at 16 µM. As for `C=CCN1C(=O)C(Cc2ccccc2)S/C1=N/c1ccc(C(=O)O)cc1` (configuration not stated), the IC50 was 100 µM. Turning to `COC(=O)C1C(=O)c2c([nH]c(C(=O)OC3CCCCC3)c2C)CC1C` (configuration not stated), the IC50 was > 100 µM. In the case of `CCNC(=O)c1cc(S(=O)(=O)NCCC(=O)O)c(C)s1`, the IC50 was > 100 µM.

For the compound `Cc1oc(C)c(C(=O)NCC(=O)O)c1C(=O)NCC(=O)O`, the IC50 was determined as 26 µM. For the compound `O=P(O)(O)c1ccccc1OCCOc1ccccc1P(=O)(O)O`, the IC50 is > 100 µM. For `O=C(O)c1cccc(Nc2nc3ccccc3nc2NS(=O)(=O)c2cccc([N+](=O)[O-])c2)c1`, the half-maximal inhibitory concentration (IC50) was > 100 µM. With `COC(=O)C1C(=O)C2=C(CC1C)NC(C)=C(C(=O)OC1CCCC1)C2c1ccccc1C` (configuration not stated), the IC50 is > 100 µM. `Cc1ccc(-c2nnc3c4ccccc4c(C)nn23)cc1S(=O)(=O)N1CCOCC1`: the IC50 was > 100 µM. On to `O=C(O)CCc1nc2cc(C(=O)O)ccc2[nH]1`, for which the IC50 worked out at 80 µM.

Turning to `COc1cc(-c2nnn[nH]2)ccc1OCC(=O)O`, the 50% inhibitory concentration (IC50) is > 100 µM.

As to `Cc1oc(CSCCSCc2cc(C(=O)O)c(C)o2)cc1C(=O)O`, the IC50 came out at 5 µM.

Molecular target in another experiment: not listed separately
The experiment is described as follows: Inhibition of exonuclase 3.
Regarding `O=C(O)CN1C(=O)/C(=C\c2ccc(-c3cccc(C(=O)O)c3)o2)SC1=S`, the midpoint of inhibition, the IC50, lay at 70 µM.

Test system in another experiment: not listed separately
The experiment can be described thus: Selectivity index, IC50 for human recombinant APE1 over exonuclase 3.
As for `O=C(O)CN1C(=O)/C(=C\c2ccc(-c3cccc(C(=O)O)c3)o2)SC1=S`, the Ratio IC50 is 12.

Test system in the next experiment: not listed separately
The experiment can be described thus: Inhibition of endonuclease 4.
For the compound `O=C(O)CN1C(=O)/C(=C\c2ccc(-c3cccc(C(=O)O)c3)o2)SC1=S`, the IC50 is > 100 µM.

The target of another experiment is Human immunodeficiency virus type 1 integrase (Human immunodeficiency virus 1, UniProt Q7ZJM1). The experiment is described as follows: Inhibition of HIV1 integrase.
Chain of Human immunodeficiency virus type 1 integrase (Q7ZJM1 whole entry): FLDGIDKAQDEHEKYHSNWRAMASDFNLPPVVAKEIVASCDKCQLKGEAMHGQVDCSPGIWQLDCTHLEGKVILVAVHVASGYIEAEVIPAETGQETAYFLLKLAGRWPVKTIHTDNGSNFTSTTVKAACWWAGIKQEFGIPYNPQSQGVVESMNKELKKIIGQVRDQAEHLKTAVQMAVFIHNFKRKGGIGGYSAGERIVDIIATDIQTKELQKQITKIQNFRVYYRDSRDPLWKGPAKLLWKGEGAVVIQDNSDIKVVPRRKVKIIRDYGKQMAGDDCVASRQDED
Turning to `O=C(O)CN1C(=O)/C(=C\c2ccc(-c3cccc(C(=O)O)c3)o2)SC1=S`, the IC50 was > 100 µM.
